This is an account of results in patent US11974991B1, “Adenosine receptor activity of methyl/ethyl 3-(substituted benzoyl)-6,8-dimethylindolizine-2-substituted-1-carboxylates” (KING FAISAL UNIVERSITY, priority 2023, dated 2024).

Where two headings read alike, the source gives them in different places.

What is called Ki is a measure of affinity in units of concentration, obtained from inhibition or displacement. The term IC50 denotes the concentration needed to halve the response being measured.

In assay [1] the target is human A1R (Homo sapiens (Human), UniProt P30542). As to the kind of experiment: Displacement of specific [3H]-CCPA binding at human A1R expressed in CHO cells. As to conditions: for Ki: [3H]-CCPA displacement, CHO cells, means ± SE, read-out: hA1R (Ki nM). From the text:
(§1) Table 1 below reports the affinity and antagonist values of compounds KNV1-KNV13. In particular, the binding affinity is expressed in Ki and the antagonistic activity in IC50.

The target in assay [2] is human A3R (Homo sapiens (Human), UniProt P0DMS8). As to the kind of experiment: Displacement of specific [3H]-HEMADO binding at human A3R expressed in CHO cells.
Sequence of human A3R (P0DMS8 whole entry): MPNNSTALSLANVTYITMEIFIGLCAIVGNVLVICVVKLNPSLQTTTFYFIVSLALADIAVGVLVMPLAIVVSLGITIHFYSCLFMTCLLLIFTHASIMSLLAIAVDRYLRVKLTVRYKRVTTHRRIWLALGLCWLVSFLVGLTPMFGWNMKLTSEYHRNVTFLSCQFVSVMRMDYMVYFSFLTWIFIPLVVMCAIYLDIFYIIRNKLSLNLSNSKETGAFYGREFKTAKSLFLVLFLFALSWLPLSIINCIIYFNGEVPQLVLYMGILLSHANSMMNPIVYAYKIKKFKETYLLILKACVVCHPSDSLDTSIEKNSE
Text: as §1

For assay [3], the target named is hA3R (Homo sapiens (Human), UniProt P0DMS8). Description: Counteracting NECA-induced decrease of cAMP accumulation (GloSensor cAMP assay) in CHO cells expressing hA3R. Format: cell-based. The method, then:
(§2) The activity of the present compounds was evaluated using the GloSensor™ cAMP assay, which is a new non-radioactive method offering a simple approach to monitor GPCR activity through changes in the intracellular cAMP concentration. This assay uses a mutant form of Photinus pyralis luciferase into which a cAMP-binding protein moiety has been inserted. The binding with cAMP triggers a biosensor conformational change that leads to an increase of light output allowing to evaluate the activity of ligands at the receptor under study. Following pre-equilibration with a substrate, cells stably expressing both the receptor of interest and the biosensor can be used to evaluate GPCR function enabling easy kinetic measurements of cAMP accumulation or turnover in living cells.
The antagonist profile of the compounds on A3AR was studied by assessing their ability to counteract the NECA-induced decrease of cAMP accumulation. After 2 hrs of equilibration in reaction medium the cells were incubated in a 384 well plate (10 min at room temperature) with 3 μl of different antagonist concentrations and then treated with 3 μl of a fixed dose of agonist. 1 μl of Forskolin 500 μM, final concentration 10 μM, were added 10 minutes after agonist and various luminescence reads were performed at different incubation times.
(In general: Cyclic AMP is a second messenger, typically raised through Gs and lowered through Gi signalling.)

In assay [4] the target is human A2AR (Homo sapiens (Human), UniProt P29274). Description: Displacement of specific [3H]-NECA binding at human A2AR expressed in CHO cells. As to conditions: for Ki: [3H]-NECA displacement, CHO cells, means ± SE, read-out: hA2AR (Ki nM).
Sequence of human A2AR (P29274 whole entry): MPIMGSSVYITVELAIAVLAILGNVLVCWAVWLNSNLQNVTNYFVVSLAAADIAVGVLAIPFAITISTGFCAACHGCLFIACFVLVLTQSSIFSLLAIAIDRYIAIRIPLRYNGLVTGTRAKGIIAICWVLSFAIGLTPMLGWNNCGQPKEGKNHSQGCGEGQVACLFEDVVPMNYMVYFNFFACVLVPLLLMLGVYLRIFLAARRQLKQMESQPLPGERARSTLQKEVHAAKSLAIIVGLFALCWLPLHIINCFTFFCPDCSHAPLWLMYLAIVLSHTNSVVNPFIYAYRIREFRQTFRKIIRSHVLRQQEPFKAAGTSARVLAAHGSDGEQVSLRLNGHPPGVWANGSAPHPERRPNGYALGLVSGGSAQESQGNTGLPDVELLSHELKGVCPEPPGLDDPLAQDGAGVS
Text: as §1

Assay [5] has as its target hA2BR (Homo sapiens (Human), UniProt P29275). Description: Inhibition of NECA-stimulated adenylyl cyclase activity / cAMP accumulation (GloSensor cAMP assay) in CHO cells expressing hA2BR. As to conditions: for IC50: inhibiting NECA-stimulated adenylyl cyclase activity, CHO cells, means ± SE. Format: cell-based. The method, then: as §2
The antagonist profile of the compounds on A2BAR was evaluated by assessing their ability to counteract the agonist NECA-induced increase of cAMP accumulation. After 2 hrs of equilibration in reaction medium cells were incubated in 384 well plate (10 min at room temperature) with 3 μl of different antagonist concentrations and then treated with 3 μl of a fixed dose of NECA. After further 10 minutes of incubation various luminescence reads were performed at different incubation times.

The mark [6] stands for this setting: [3H]-HEMADO displacement, CHO cells, means ± SE, read-out: hA3R (Ki nM).
[7] abbreviates: counteracting NECA-induced decrease of cAMP accumulation, CHO cells expressing hA3R, means ± SE, read-out: hA2AR (IC50 nM) [footnote e: hA3R].

Sequence of human A1R (P30542 whole entry): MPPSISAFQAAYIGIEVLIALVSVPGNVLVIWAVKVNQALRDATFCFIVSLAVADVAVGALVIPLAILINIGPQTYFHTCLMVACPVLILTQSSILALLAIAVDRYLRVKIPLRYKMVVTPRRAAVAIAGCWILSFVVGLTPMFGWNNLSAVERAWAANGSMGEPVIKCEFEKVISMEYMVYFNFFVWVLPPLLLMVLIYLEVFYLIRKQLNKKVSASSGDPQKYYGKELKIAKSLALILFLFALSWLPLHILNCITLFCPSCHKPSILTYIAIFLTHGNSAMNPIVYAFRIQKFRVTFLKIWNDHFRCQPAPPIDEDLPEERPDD
Sequence of hA2BR (P29275 whole entry): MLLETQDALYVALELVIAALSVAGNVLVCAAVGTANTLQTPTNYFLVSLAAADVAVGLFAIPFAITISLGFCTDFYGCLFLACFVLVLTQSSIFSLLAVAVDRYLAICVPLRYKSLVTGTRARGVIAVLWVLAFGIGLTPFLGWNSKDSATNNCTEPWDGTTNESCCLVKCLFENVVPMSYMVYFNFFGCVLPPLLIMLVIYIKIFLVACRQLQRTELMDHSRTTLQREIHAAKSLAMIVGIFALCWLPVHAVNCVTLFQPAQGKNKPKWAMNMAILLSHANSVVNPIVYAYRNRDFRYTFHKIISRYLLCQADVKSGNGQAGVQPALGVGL
Sequence of hA3R (P0DMS8 whole entry): as the sequence (P0DMS8 whole entry) above

Turning to `CCOC(=O)c1cc(C(=O)c2ccc(Cl)cc2)n2cc(C)cc(C)c12` [KNV1, Ethyl 3-(4-chlorobenzoyl)-6,8-dimethylindolizine-1-carboxylate], the results for the Ki in assay [1], in assay [2] (setting [6]) and in assay [4] were greater than 30000 nM, 591 ± 112 nM and greater than 30000 nM, respectively. Further, the IC50 is 1510 ± 351 nM in assay [3] (setting [7]) and greater than 30000 nM in assay [5].

Consider `COC(=O)c1c(C(=O)OC)c2c(C)cc(C)cn2c1C(=O)c1ccc(OC)cc1` [KNV2, Dimethyl 3-(4-methoxybenzoyl)-6,8-dimethylindolizine-1,2-dicarboxylate], for which the Ki turned out to be 1330 ± 217 nM in assay [1], 1910 ± 45 nM in assay [2] (setting [6]) and 4820 ± 243 nM in assay [4]. In addition, the IC50 in assay [3] (setting [7]) was 7900 ± 1080 nM; in assay [5], greater than 30000 nM.

As to `COC(=O)c1c(C(=O)OC)c2c(C)cc(C)cn2c1C(=O)c1ccc(Br)cc1` [KNV4, Dimethyl 3-(4-bromobenzoyl)-6,8-dimethylindolizine-1,2-dicarboxylate], the Ki in assay [1] worked out at 6980 ± 330 nM; in assay [2] (setting [6]) it was 2160 ± 468 nM; in assay [4], 5540 ± 998 nM. In addition, the IC50 in assay [3] (setting [7]) is 9580 ± 1080 nM; in assay [5], greater than 30000 nM.

Take `CCOC(=O)c1cc(C(=O)c2ccccc2[N+](=O)[O-])n2cc(C)cc(C)c12` [KNV6, Ethyl 6,8-dimethyl-3-(2-nitrobenzoyl)indolizine-1-carboxylate]: the values for the Ki in assay [1], in assay [2] (setting [6]) and in assay [4] were greater than 30000 nM, 930 ± 159 nM and 7970 ± 1660 nM, respectively. For the same compound, the IC50 was 3420 ± 879 nM in assay [3] (setting [7]) and greater than 30000 nM in assay [5].

`CCOC(=O)c1cc(C(=O)c2ccc(C)cc2)n2cc(C)cc(C)c12` [KNV7, Ethyl 6,8-dimethyl-3-(4-methylbenzoyl)indolizine-1-carboxylate]: the Ki in assay [1] is greater than 30000 nM; in assay [2] (setting [6]), 1070 ± 157 nM; in assay [4] it was 4970 ± 508 nM. Also, the figures for the IC50 in assay [3] (setting [7]) and in assay [5] were 4210 ± 1150 nM and greater than 30000 nM, respectively.

On to `COC(=O)c1c(C(=O)OC)c2c(C)cc(C)cn2c1C(=O)c1ccc(C)cc1` [KNV8, Dimethyl 6,8-dimethyl-3-(4-methylbenzoyl)indolizine-1,2-dicarboxylate], for which the Ki in assay [1] worked out at 2390 ± 171 nM; in assay [2] (setting [6]), 3090 ± 6 nM; in assay [4], 1609 ± 13 nM. The half-inhibitory concentration (IC50) in assay [3] (setting [7]) is 11000 ± 2050 nM; in assay [5] it was greater than 30000 nM.

As to `CCOC(=O)c1cc(C(=O)c2ccc(OC)cc2)n2cc(C)cc(C)c12` [KNV9, Ethyl 3-(4-methoxybenzoyl)-6,8-dimethylindolizine-1-carboxylate], the Ki in assay [1] was greater than 30000 nM; in assay [2] (setting [6]) it was 305 ± 57 nM; in assay [4] it was greater than 30000 nM. Also, the IC50 was 865 ± 105 nM in assay [3] (setting [7]) and greater than 30000 nM in assay [5].

With `COC(=O)c1c(C(=O)OC)c2c(C)cc(C)cn2c1C(=O)c1ccc(Cl)cc1` [KNV10, Dimethyl 3-(4-chlorobenzoyl)-6,8-dimethylindolizine-1,2-dicarboxylate], the Ki in assay [1] is 5610 ± 1080 nM; in assay [2] (setting [6]) it was 924 ± 127 nM; in assay [4] it was 6880 ± 705 nM. The figures for the IC50 in assay [3] (setting [7]) and in assay [5] were 4210 ± 521 nM and greater than 30000 nM, respectively.

As to `CCOC(=O)c1cc(C(=O)c2ccc(C#N)cc2)n2cc(C)cc(C)c12` [KNV11, Ethyl 3-(4-cyanobenzoyl)-6,8-dimethylindolizine-1-carboxylate], the Ki in assay [1] was greater than 30000 nM; in assay [2] (setting [6]), 8540 ± 1500 nM; in assay [4] it was greater than 30000 nM. The IC50 in assay [3] (setting [7]) is 25900 ± 4200 nM; in assay [5], greater than 30000 nM.

As for `COC(=O)c1c(C(=O)OC)c2c(C)cc(C)cn2c1C(=O)c1ccc(C#N)cc1` [KNV12, Dimethyl 3-(4-cyanobenzoyl)-6,8-dimethylindolizine-1,2-dicarboxylate], the inhibition constant Ki in assay [1] is greater than 30000 nM; in assay [2] (setting [6]), 12100 ± 1700 nM; in assay [4], greater than 30000 nM. Further, the figures for the IC50 in assay [3] (setting [7]) and in assay [5] were 41100 ± 9220 nM and greater than 30000 nM, respectively.

For `CCOC(=O)c1cc(C(=O)c2cc(C(F)(F)F)cc(C(F)(F)F)c2)n2cc(C)cc(C)c12` [KNV13, Ethyl 3-(3,5-bis(trifluoromethyl)benzoyl)-6,8-dimethylindolizine-1-carboxylate], the Ki in assay [1] is greater than 30000 nM; in assay [2] (setting [6]), 7140 ± 130 nM; in assay [4], greater than 30000 nM. For the same compound, the values for the IC50 in assay [3] (setting [7]) and in assay [5] were 28000 ± 5220 nM and greater than 30000 nM, respectively.

Turning to “Ethyl 3-(4-bromobenzoyl)-6,8-dimethylindolizine-1-carboxylate [KNV3]”, the Ki in assay [1], in assay [2] (setting [6]) and in assay [4] was greater than 30000 nM in each case. For the same compound, the IC50 in assay [3] (setting [7]) and in assay [5] was greater than 30000 nM in each case.

With “Ethyl 3-(4-fluorobenzoyl)-6,8-dimethylindolizine-1-carboxylate [KNV5]”, the “activity in the other subtypes (A1)” value in assay [1] is given as “not active”. For the same compound, the Ki is greater than 30000 nM in assay [1]; 213 ± 16 nM in assay [2] (setting [6]); 213 nM in assay [2] (unit inferred, read-out: Ki towards A3AR); greater than 30000 nM in assay [4]. Besides, the concentration for half-maximal inhibition (IC50) was 196 ± 55 nM in assay [3] (setting [7]); 196 nM in assay [3] (unit inferred, read-out: IC50, antagonistic activity on A3AR); greater than 30000 nM in assay [5]. Further, the “activity in the other subtypes (A2A)” value in assay [4] is “not active”. In addition, the “activity in the other subtypes (A2B)” value in assay [5] is listed as “not active”.
